Measurements from patent US9695155B2, “Herbicidal substituted pyrimidinyloxy benzene compounds” (E. I. DU PONT DE NEMOURS AND COMPANY, priority 2013, dated 2017).

Key:
[1] = system: canarygrass; test: Test D preemergence; type: in vivo, Phalaris minor; settings: Phalaris minor, pre-emergence
Text: (§1) Seeds of plant species selected from bluegrass (annual bluegrass, Poa annua), blackgrass (Alopecurus myosuroides), canarygrass (littleseed canarygrass, Phalaris minor), chickweed (common chickweed, Stellaria media), galium (catchweed bedstraw, Galium aparine), bromegrass, downy (downy bromegrass, Bromus tectorum), field poppy (Papaver rhoeas), field violet (Viola arvensis), green foxtail (Setaria viridis), deadnettle (henbit deadnettle, Lamium amplexicaule), Italian ryegrass (Lolium multiflorum), kochia (Kochia scoparia), lambsquarters (Chenopodium album), oilseed rape (Brassica napus), pigweed (Amaranthus retroflexus), chamomile (scentless chamomile, Matricaria inodora), Russian thistle (Salsola kali), speedwell (bird's-eye speedwell, Veronica persica), spring barley (Hordeum vulgare), spring wheat (Triticum aestivum), wild buckwheat (Polygonum convolvulus), wild mustard (Sinapis arvensis), wild oat (Avena fatua), wild radish (Raphanus raphanistrum), windgrass (Apera spica-venti), winter barley (Hordeum vulgare), and winter wheat (Triticum aestivum) were planted into a silt loam soil and treated preemergence with test chemicals formulated in a non-phytotoxic solvent mixture which included a surfactant.
(§2) At the same time, these species were planted in pots containing Redi-Earth® planting medium (Scotts Company, 14111 Scottslawn Road, Marysville, Ohio 43041) comprising spaghnum peat moss, vermiculite, wetting agent and starter nutrients and treated with postemergence applications of the test chemicals formulated in the same manner. Plants ranged in height from 2 to 18 cm (1- to 4-leaf stage). Treated plants and controls were maintained in a controlled growth environment for 7 to 21 days after which time all species were compared to controls and visually evaluated. Plant response ratings, summarized in Table D, are based on a scale of 0 to 100 where 0 is no effect and 100 is complete control. A dash (-) response means no test result.

[2] = system: deadnettle; test: Test D preemergence; type: in vivo, Lamium amplexicaule; settings: Lamium amplexicaule, pre-emergence
Method in brief: (§3)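 Visual ratings from 0 (no effect) to 100 (complete control) relative to untreated plants were taken 7–21 days after treatment. Chemicals in a surfactant-containing solvent mixture were applied preemergence to seeds in silt loam, or postemergence to plants 2–18 cm tall (1–4 leaves) grown in a peat-based potting medium.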

[3] = system: field violet; test: Test D postemergence; type: in vivo, Viola arvensis; settings: Viola arvensis, post-emergence, scale 0 to 100 (0 no effect, 100 complete control), read-out: Plant response rating, Field Violet
Text: as §1, §2

[4] = system: galium; test: Test D preemergence; type: in vivo, Galium aparine; settings: Galium, pre-emergence
Method in brief: as §3

[5] = system: johnsongrass; test: Test F preemergence; type: in vivo, Sorghum halepense; settings: 21 days, scale 0 to 100
Text: (§4) Seeds of plant species selected from bermudagrass (Cynodon dactylon), surinam grass (Brachiaria decumbens), large (Lg) crabgrass (Digitaria sanguinalis), crabgrass, naked (naked crabgrass, Digitaria nuda), foxtail, green (green foxtail, Setaria viridis), johnsongrass (Sorghum halepense), kochia (Kochia scoparia), morningglory (pitted morningglory, Ipomoea lacunosa), nutsedge, purple (purple nutsedge, Cyperus rotundus), ragweed (common ragweed, Ambrosia elatior), mustard, black (black mustard, Brassica nigra), guineagrass (Panicum maximum), dallisgrass (Paspalum dilatatum), barnyardgrass (Echinochloa crus-galli), sandbur (southern sandbur, Cenchrus echinatus), sowthistle (common sowthistle, Sonchus oleraceous), Italian ryegrass (Lolium multiflorum), signalgrass (broadleaf signalgrass, Brachiaria platyphylla), dayflower (Virginia (VA) dayflower, Commelina virginica), bluegrass (annual bluegrass, Poa annua), quackgrass (Elytrigia repens), mallow (common mallow, Malva sylvestris), buckwheat, wild (wild buckwheat, Polygonum convolvulus), leafy spurge (Euphorbia esula), chickweed (common chickweed, Stellaria media), wild poinsettia (Euphorbia heterophylla), and pigweed (Amaranthus retroflexus) were planted into a blend of loam soil and sand and treated preemergence with test chemicals formulated in a non-phytotoxic solvent mixture which included a surfactant.
(§5) Treated plants and controls were maintained in a greenhouse for 21 days, after which time all species were compared to controls and visually evaluated. Plant response ratings, summarized in Table F, are based on a scale of 0 to 100 where 0 is no effect and 100 is complete control. A dash (-) response means no test result.

[6] = system: oilseed rape; test: Test D preemergence; type: in vivo, Brassica napus; settings: Brassica napus, pre-emergence
Text: as §1, §2

[7] = system: pigweed; test: Test F preemergence; type: in vivo, Amaranthus retroflexus; settings: 21 days, scale 0 to 100
Method in brief: (§6)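 Greenhouse test: soil (loam with sand) seeded, then sprayed preemergence using a surfactant-containing non-phytotoxic solvent formulation. At day 21, response judged visually relative to controls, where 0 means no effect and 100 means full control.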

[8] = system: bermudagrass; test: Test F preemergence; type: in vivo, Cynodon dactylon; settings: 21 days, scale 0 to 100
Method in brief: as §6

[9] = system: wild mustard; test: Test D postemergence; type: in vivo, Sinapis arvensis; settings: Brassica, post-emergence
Text: as §1, §2

[10] = system: mustard, black; test: Test F preemergence; type: in vivo, Brassica nigra; settings: 21 days, scale 0 to 100
Text: as §4, §5

[11] = system: blackgrass; test: Test D preemergence; type: in vivo, Alopecurus myosuroides; settings: Alopecurus myosuroides, pre-emergence
Method in brief: as §3

N#Cc1cccc(Oc2ncc(Cl)cn2)c1-n1cc(OCC(F)(F)F)cn1 [Compound 274, 3-[(5-chloro-2-pyrimidinyl)oxy]-2-[4-(2,2,2-trifluoroethoxy)-1H-pyrazol-1-yl]benzonitrile]
pest or weed control at 16 g/ha ([1]; 16 g ai/ha, scale 0 (no effect) to 100 (complete control), read-out: Plant response rating, Canarygrass): 20% | pest or weed control at 31 g/ha ([1]; 31 g ai/ha, scale 0-100, read-out: Plant response rating, Canarygrass): 20% | pest or weed control at 62 g/ha ([1]; 62 g ai/ha, scale 0-100, read-out: Plant response rating, Canarygrass): 60% | pest or weed control at 125 g/ha ([1]; 125 g ai/ha, scale 0-100, read-out: Plant response rating, Canarygrass): 85% | pest or weed control at 16 g/ha ([2]; 16 g ai/ha, scale 0 (no effect) to 100 (complete control), read-out: Plant response rating, Deadnettle): 55% | pest or weed control at 31 g/ha ([2]; 31 g ai/ha, scale 0-100, read-out: Plant response rating, Deadnettle): 100% | pest or weed control at 62 g/ha ([2]; 62 g ai/ha, scale 0-100, read-out: Plant response rating, Deadnettle): 100% | pest or weed control at 125 g/ha ([2]; 125 g ai/ha, scale 0-100, read-out: Plant response rating, Deadnettle): 100% | pest or weed control at 31 g/ha ([3]; 31 g ai/ha): 75% | pest or weed control at 62 g/ha ([3]; 62 g ai/ha): 70% | pest or weed control at 125 g/ha ([3]; 125 g ai/ha): 85% | pest or weed control at 16 g/ha ([4]; 16 g ai/ha, scale 0 (no effect) to 100 (complete control), read-out: Plant response rating, Galium): 0% | pest or weed control at 31 g/ha ([4]; 31 g ai/ha, scale 0-100, read-out: Plant response rating, Galium): 60% | pest or weed control at 62 g/ha ([4]; 62 g ai/ha, scale 0-100, read-out: Plant response rating, Galium): 100% | pest or weed control at 125 g/ha ([4]; 125 g ai/ha, scale 0-100, read-out: Plant response rating, Galium): 100% | Plant response rating, Johnsongrass ([5]; 16 g ai/ha): 65 | Plant response rating, Johnsongrass ([5]; 31 g ai/ha): 70 | Plant response rating, Johnsongrass ([5]; 62 g ai/ha): 100 | Plant response rating, Johnsongrass ([5]; 125 g ai/ha): 100 | Plant response rating, Johnsongrass ([5]; 250 g ai/ha): 100 | plant injury at 16 g/ha ([6]; 16 g ai/ha, scale 0 (no effect) to 100 (complete control), read-out: Plant response rating, Oilseed Rape): 35% | plant injury at 31 g/ha ([6]; 31 g ai/ha, scale 0-100, read-out: Plant response rating, Oilseed Rape): 30% | plant injury at 62 g/ha ([6]; 62 g ai/ha, scale 0-100, read-out: Plant response rating, Oilseed Rape): 65% | plant injury at 125 g/ha ([6]; 125 g ai/ha, scale 0-100, read-out: Plant response rating, Oilseed Rape): 75% | Plant response rating, Pigweed ([7]; 16 g ai/ha): 100 | Plant response rating, Pigweed ([7]; 31 g ai/ha): 100 | Plant response rating, Pigweed ([7]; 62 g ai/ha): 100 | Plant response rating, Pigweed ([7]; 125 g ai/ha): 100 | Plant response rating, Pigweed ([7]; 250 g ai/ha): 100 | Plant response rating, Bermudagrass ([8]; 16 g ai/ha): 85 | Plant response rating, Bermudagrass ([8]; 31 g ai/ha): 100 | Plant response rating, Bermudagrass ([8]; 62 g ai/ha): 100 | Plant response rating, Bermudagrass ([8]; 125 g ai/ha): 100 | Plant response rating, Bermudagrass ([8]; 250 g ai/ha): 100 | pest or weed control at 16 g/ha ([9]; 16 g ai/ha, scale 0-100, read-out: Plant response rating, Mustard, Wild): 70% | pest or weed control at 31 g/ha ([9]; 31 g ai/ha, scale 0 to 100 (0 no effect, 100 complete control), read-out: Plant response rating, Mustard, Wild): 75% | pest or weed control at 62 g/ha ([9]; 62 g ai/ha, scale 0 to 100 (0 no effect, 100 complete control), read-out: Plant response rating, Mustard, Wild): 100% | pest or weed control at 125 g/ha ([9]; 125 g ai/ha, scale 0 to 100 (0 no effect, 100 complete control), read-out: Plant response rating, Mustard, Wild): 100% | Plant response rating, Mustard, Black ([10]; 16 g ai/ha): 98 | Plant response rating, Mustard, Black ([10]; 31 g ai/ha): 100 | Plant response rating, Mustard, Black ([10]; 62 g ai/ha): 100 | Plant response rating, Mustard, Black ([10]; 125 g ai/ha): 100 | Plant response rating, Mustard, Black ([10]; 250 g ai/ha): 100 | pest or weed control at 16 g/ha ([11]; 16 g ai/ha, scale 0 (no effect) to 100 (complete control), read-out: Plant response rating, Blackgrass): 10% | pest or weed control at 31 g/ha ([11]; 31 g ai/ha, scale 0-100, read-out: Plant response rating, Blackgrass): 30% | pest or weed control at 62 g/ha ([11]; 62 g ai/ha, scale 0-100, read-out: Plant response rating, Blackgrass): 70% | pest or weed control at 125 g/ha ([11]; 125 g ai/ha, scale 0-100, read-out: Plant response rating, Blackgrass): 95%
